Measurements reported in patent US9328369B2, “Process for production of useful substance, and surfactant for use in the process” (priority 2009, dated 2016).

Tests used:
Assay type in all cases: cell-based
Escherichia coli (α) = experiment: Screening of secretion efficiency, alkaline phosphatase expressing strain; conditions: surfactant 1 wt %; 37° C., 1 hour; ELISA, anti-His-tag antibody
Excerpt: An alkaline phosphatase (phoA) gene of an Escherichia coli strain W3110 was amplified by the PCR method using primers 1 and 2 (Table 4). After being treated with restriction enzymes NdeI and BamHI, a PCR fragment was bound with an NdeI restriction enzyme site and with a BamHI restriction enzyme site of a pET-22b plasmid (product of Novagen). Then, the plasmid was transformed into an AG1 (DE3) Escherichia coli strain formed by transforming an Escherichia coli strain AG1 (product of TOYOBO Co., LTD.) with use of a λDE3 Lysogenization Kit (product of Novagen). In this manner, an alkaline phosphatase expressing strain (a) was formed.
(§1) A pdxA gene of an Escherichia coli strain W3110 was amplified by the PCR method using primers 5 and 6 (Table 4). After being treated with restriction enzymes NdeI and BamHI, a PCR fragment was bound to an NdeI restriction enzyme site and a BamHI restriction enzyme site of a pET-22b plasmid (product of Novagen). Then, the plasmid was transformed into an AG1 (DE3) Escherichia coli strain to form a PdxA expressing strain (γ).
In this manner, culture solutions were prepared.
(2) The strains were collected using a centrifuge (4,000 G, 4° C., 15 minutes). Each of the collected Escherichia coli strains was resuspended in 1 mL of a TB culture solution (product of Difco) and chloramphenicol (30 mg/L) and IPTG (100 μM) were added thereto. Shake culture at 37° C. for 3 hours induced expression of phoA, torA, and pdxA.
(3) Subsequently, harvesting using a centrifuge was carried out again (4,000 G, 4° C., 15 minutes). Each of the collected Escherichia coli strains was resuspended in 2.5 mL of a Tris-NaCl buffer solution (50 mM Tris (pH 7.5), 100 mM NaCl). The resulting solution was divided into 25-μL portions at a time to be mixed with 25 μL of a Tris-NaCl buffer solution.
(4) Then, the solution was allowed to stand at 37° C. for 1 hour. The supernatant solution was collected and diluted in a Tris-NaCl buffer solution to a proper concentration. Here, the quantification of the recombinant protein in the resulting solution was carried out by ELISA assay with use of an anti-His-tag antibody. The sample prior to the centrifugation in the process (3) was treated with ultrasonic waves (200 W, 10 minutes) and the quantification of the recombinant protein therein was similarly carried out by ELISA assay with use of an anti-His-tag antibody. The ratio of lysed bacteria was obtained with use of Escherichia coli (γ), and the secretion efficiencies of the recombinant proteins of Escherichia coli (α) and (β) were calculated by using the following formula. […] Secretion efficiency (%)=100×{(X/Y)−Z}.
In the formula, “X” represents the amount of the recombinant protein in the culture solution after removal of bacterial cells by centrifugation in the case of using Escherichia coli (α) or (β).
“Y” represents the amount of the whole recombinant protein in the culture solution in the case of using Escherichia coli (α) or (β).
“Z” represents the ratio of lysed bacteria obtained with use of Escherichia coli (γ), which is determined by the following formula: Z=Z1/Z2.
In the formula, “Z1” represents the amount of the recombinant protein in the culture solution which remains after removal of bacterial cells by centrifugation in the case of using Escherichia coli (γ).
“Z2” represents the amount of the whole recombinant protein in the culture solution in the case of using Escherichia coli (γ).
Escherichia coli (α) and (β) were each cultured in the same manner as in the above case except that polyoxyethylene (3 mol) tridecyl ether sodium acetate as the surfactant (A) was added right after the resuspension of the Escherichia coli in the buffer solution in the process (3) of A-0, in an amount of 1% by weight on the basis of the weight of the suspension of the bacterium. The secretion efficiency was calculated according to the above-mentioned definition.

Escherichia coli(δ) [1] = experiment: Production by secretion in microbial culture system, cellulase expressing strain (Table 5); design: key to Turbidity: (measured turbidity of diluted culture − blank) × dilution rate; conditions: Examples 2-11, surfactant 1 wt %; for Dried cell density: at termination of culturing, obtained from turbidity; for Turbidity: culturing terminated after 48 hours
Description: A bglC gene of Bacillus licheniformis was amplified by the PCR method using primers 9 and 10 (Table 4). After being treated with restriction enzymes NcoI and BamHI, a PCR amplified fragment was bound to an NcoI restriction enzyme site and a BamHI restriction enzyme site of a pET-22b plasmid (product of Novagen). Then, the plasmid was transformed into a BL21 (DE3) Escherichia coli strain (product of Novagen) to form Escherichia coli […] that expresses cellulase.
Overnight cultures (1 ml) of Escherichia coli (δ) obtained in Production Example 4 and Escherichia coli (ε) obtained in Production Example 5 were respectively prepared as Comparative Example 2 and Comparative Example 4. An amount of 0.5 ml of each was inoculated in 5 ml of an LB culture solution (containing 100 mg/L of ampicillin) and was shake-cultured at 30° C. for 3 hours. In this manner, pre-culture solutions were prepared. The pre-culture solutions were each inoculated in 50 mL of a culture solution (1.2 g of yeast extract (Nihon Pharmaceutical Co., Ltd.), 0.6 g of polypeptone (Nihon Pharmaceutical Co., Ltd.), 0.47 g of dipotassium phosphate, 0.11 g of monopotassium phosphate, 0.35 g of ammonium sulfate, 0.66 g of disodium phosphate 12-hydrate, 0.02 g of sodium citrate dihydrate, 0.2 g of glycerol, 1.5 g of lactalbumin hydrolysate, 0.3 g of a defoaming agent (Shin-Etsu Chemical Co., Ltd., “KM-70”), 1 mM magnesium sulfate, trace metal solution (18.9 μg of calcium chloride, 500 μg of iron chloride (III), 9.0 μg of zinc sulfate heptahydrate, 5.1 μg of copper sulfate, 6.7 μg of manganese chloride tetrahydrate, 4.9 μg of cobalt chloride, 200 μg of ethylene-diamine-tetraacetic acid tetrasodium salt), 100 mg/L ampicillin). Culturing was initiated with use of a microbial culture system (ABLE Corporation, product name “BioJr. 8”), while the pH value and the temperature were maintained at 6.8 and 30° C. After the culturing was initiated, 0.15 mL of 1M IPTG was added. After 14 hours from the initiation of culturing, instillation of a glycerin/protein solution (50% of glycerin, 50 g/L of lactalbumin hydrolysate, a 33 g/L defoaming agent (Shin-Etsu Chemical Co., Ltd., “KM-70”), 100 mg/L ampicillin) was started. The culturing was terminated after 48 hours from the initiation and the culture solution was recovered. The whole protein in the culture solution was analyzed by SDS-PAGE. Based on the obtained amount of the protein band, the recombinant protein was quantified.
The dried cell density at the termination of the culturing was determined by the following processes (1) to (5):
The dried cell density was determined by applying the measuring results in the process (5) and the process (1) and the volume (L) of the culture solution used in the process (2) to the following formula: Dried cell density (g/L)=([measuring result in process (5)]−[measuring result in process (1)])/0.1.
Performance of this processes for several times clarified the proportional relationship between the turbidity of the culture solution and the dried cell density. Therefore, the dried cell density was obtained from the measured turbidity in each of Comparative Examples 2 to 4 and Examples 2 to 14.
The turbidity of a culture solution that is same as the culture solution used in the measurement of the dried cell density was measured using a turbidimeter (Shimadzu Corporation, UV-1700) and 1 ml of quarts cell.
For measurement, the culture solution was diluted in saline to have an appropriate absorbance. The absorbance of the same culture solution (but not containing bacteria) diluted at the same dilution as above was set as a blank. The turbidity of the culture solution was calculated by using the following formula: Turbidity of culture solution=[(measured turbidity of diluted culture solution)−(measured turbidity of blank)]×dilution rate.
The dried cell density and the turbidity of the culture solution were plotted to construct a graph in FIG. 3. […]

Escherichia coli(δ) [2] = experiment: as above; conditions: Examples 2-11; surfactant 1 wt %; supernatant of culture solution, SDS-PAGE
Escherichia coli (β) = experiment: Screening of secretion efficiency, TorA expressing strain; conditions: surfactant 1 wt %; 37° C., 1 hour; ELISA, anti-His-tag antibody
Excerpt: as §1, with “torA” for “pdxA”, “3” for “5”, “4” for “6”, “TorA” for “PdxA”, “(β). Localization of the expressed TorA in a periplasmic fraction was confirmed by conducting an analysis based on the method disclosed in page 121 of Vol. 353 of METHODS IN ENZYMOLOGY (2002).” for “(γ).”
as §1, with “(γ). Localization of the expressed PdxA in a cytoplasmic compartment was confirmed by conducting an analysis based on the method disclosed in page 121 of Vol. 353 of METHODS IN ENZYMOLOGY (2002). […]” for “(γ).”
(4) Then, the solution was allowed to stand at 37° C. for 1 hour. […] Here, the quantification of the recombinant protein in the resulting solution was carried out by ELISA assay with use of an anti-His-tag antibody. The sample prior to the centrifugation in the process (3) was treated with ultrasonic waves (200 W, 10 minutes) and the quantification of the recombinant protein therein was similarly carried out by ELISA assay with use of an anti-His-tag antibody. The ratio of lysed bacteria was obtained with use of Escherichia coli (γ), and the secretion efficiencies of the recombinant proteins of Escherichia coli (α) and (β) were calculated by using the following formula. […]
“Z” represents the ratio of lysed bacteria obtained with use of Escherichia coli (γ), which is determined by the following formula: Z=Z1/Z2. […]

Row | Compound | Secretion efficiency (%) Escherichia coli (α) (Escherichia coli (α)) | Dried cell density (Escherichia coli(δ) [1]) | Turbidity (Escherichia coli(δ) [1]) | Quantitative value of produced recombinant protein (Escherichia coli(δ) [2]) | Secretion efficiency (%) Escherichia coli (β) (Escherichia coli (β))
1 | CCCCCCCCCCCC[N+](C)(C)CC(=O)[O-] [A-5, Lauryl dimethylamino acetate betaine] | 87.8% | 23.8 g/L | 85 | 2.58 g/L | –
2 | CCCCCCCCCCCC(=O)NCCN(CCO)CC(=O)O.[Na] [A-13, Sodium N-lauroyl-N′-carboxymethyl-N′-hydroxyethyl ethylenediamine] | 46.6% | 21.4 g/L | 76.4 | 1.79 g/L | –
3 | Palm oil fatty acid amide propyl dimethyl amino acetate betaine [A-3] | 91.3% | – | – | – | 93.6%
4 | Sodiumt polyoxyethylene (3 mol) laurylether acetate [A-9] | 63.3% | 14.2 g/L | 50.7 | 1.35 g/L | –
